Measurements: ChEMBL document CHEMBL1799910, “Optimization of 1,2,3,4-tetrahydroacridin-9(10H)-ones as antimalarials utilizing structure-activity and structure-property relationships” (J Med Chem, 2011)
≈ marks a conversion by molar mass, not a printed value.

Assays:
[1] = tested on: Plasmodium falciparum; assay: Antimalarial activity against chloroquine and pyrimethamine-resistant Plasmodium falciparum W2 infected in human A positive erythrocytes after 72 hrs by SYBR Green I assay; format: functional, organism-based; conditions: W2, 72 h
[2] = tested on: Plasmodium falciparum; assay: Antimalarial activity against chloroquine, mefloquine, pyrimethamine and atovaquone-resistant Plasmodium falciparum TM90-C2B infected in human A positive erythrocytes after 72 hrs by SYBR Green I assay; format: functional, organism-based
[3] = tested on: Plasmodium falciparum; assay: Resistance index, ratio of EC50 for chloroquine, mefloquine, pyrimethamine and atovaquone-resistant Plasmodium falciparum TM90-C2B to EC50 for chloroquine and pyrimethamine-resistant Plasmodium falciparum W2; format: functional
[4] = tested on: J774; assay: Cytotoxicity against mouse J774 cells after 72 hrs by Cell titer 96 aqueous one solution cell proliferation assay; format: cell-based; conditions: J774, 72 h
[5] = Aqueous solubility of compound at pH 7.4 by HPLC analysis; conditions: buffer
[6] = Permeability of the compound by PAMPA method at pH 7.4; format: ADME; conditions: read-out: permeability
[7] = Partition coefficient, log D of the compound at pH 7.4 by HPLC analysis; conditions: octanol/water
[8] = Cytotoxicity index, ratio of EC50 for mouse J774 cells to EC50 for chloroquine, mefloquine, pyrimethamine and atovaquone-resistant Plasmodium falciparum TM90-C2B; format: cell-based; conditions: read-out: Ratio EC50

| Structure (SMILES) | EC50 [1] | EC50 [2] | Ratio EC50 [3] | EC50 [4] | solubility [5] | Papp [6] | logD [7] | selectivity ratio [8] |
| --- | --- | --- | --- | --- | --- | --- | --- | --- |
| COc1cccc2c(=O)c3c([nH]c12)CCCC3 | 4770 nM | 4560 nM | 0.95 | > 20000 nM | 99 µM (≈ 22.7 µg/mL) | 16 ×10⁻⁶ cm/s | 1.7 | ≥ 100 |
| Cc1ccc2c(=O)c3c([nH]c2c1)CC(C)(C)CC3 | 1460 nM | 965 nM | 0.66 | > 10000 nM | 17 µM (≈ 4.1 µg/mL) | 53 ×10⁻⁶ cm/s | 2.49 | ≥ 100 |
| COc1cccc2[nH]c3c(c(=O)c12)CCCC3 | 8970 nM | 5940 nM | 0.66 | > 20000 nM | 76 µM (≈ 17.4 µg/mL) | 17 ×10⁻⁶ cm/s | 1.2 | ≥ 100 |
| COc1cccc2c(=O)c3c([nH]c12)CCC(C)(C)C3 | 1990 nM | 620 nM | 0.31 | > 40000 nM | 91 µM (≈ 23.4 µg/mL) | 95 ×10⁻⁶ cm/s | 2.4 | ≥ 100 |
| COc1ccc2c(=O)c3c([nH]c2c1)CCCCCC3 | 146 nM | 230 nM | 1.58 | > 40000 nM | 98 µM (≈ 25.2 µg/mL) | 73 ×10⁻⁶ cm/s | 2.4 | ≥ 100 |
| COc1cc2[nH]c3c(c(=O)c2cc1C)CCCC3 | 34.8 nM | 16.2 nM | 0.46 | > 20000 nM | 23 µM (≈ 5.6 µg/mL) | 50 ×10⁻⁶ cm/s | 2 | ≥ 100 |
| CC1(C)CCc2[nH]c3cc(Cl)ccc3c(=O)c2C1 | 240 nM | 829 nM | 3.45 | > 40000 nM | 1 µM (≈ 0.262 µg/mL) | 62 ×10⁻⁶ cm/s | 2.8 | ≥ 100 |
| Cc1ccc(C)c2c(=O)c3c([nH]c12)CCCC3 | 3070 nM | 2390 nM | 0.78 | > 20000 nM | 122 µM (≈ 27.7 µg/mL) | 263 ×10⁻⁶ cm/s | 2.6 | ≥ 100 |
| COc1cccc2[nH]c3c(c(=O)c12)CC(C)(C)CC3 | 5240 nM | 3500 nM | 0.67 | > 20000 nM | 83 µM (≈ 21.4 µg/mL) | 54 ×10⁻⁶ cm/s | 1.9 | ≥ 100 |
| CN(C)c1ccc(-c2ccc3c(=O)c4c([nH]c3c2)CCCC4)cc1 | 99.2 nM | 161 nM | 1.62 | > 10000 nM | 11 µM (≈ 3.5 µg/mL) | 199 ×10⁻⁶ cm/s | 1.3 | ≥ 100 |
| COc1ccc2c(=O)c3c([nH]c2c1)CCCCC3 | 171 nM | 153 nM | 0.89 | > 20000 nM | 30 µM (≈ 7.3 µg/mL) | 39 ×10⁻⁶ cm/s | 2.1 | ≥ 100 |
| O=c1c2c([nH]c3ccc(-c4ccc(OCc5ccccc5)cc4)cc13)CCSC2 | 35.9 nM | 370 nM | 10.3 | > 1000 nM | 1 µM (≈ 0.4 µg/mL) | < 1 ×10⁻⁶ cm/s | 2.8 | ≥ 100 |
| Cc1cccc2[nH]c3c(c(=O)c12)CC(C)(C)CC3 | 3020 nM | 4130 nM | 1.37 | > 40000 nM | 45 µM (≈ 10.9 µg/mL) | 269 ×10⁻⁶ cm/s | 2.7 | ≥ 100 |
| O=c1c2c([nH]c3cc(C(F)(F)F)ccc13)CCCCC2 | 4890 nM | > 4340 nM | >0.88 | > 10000 nM | 17 µM (≈ 4.78 µg/mL) | 131 ×10⁻⁶ cm/s | 3 | ≥ 100 |
| O=c1c2c([nH]c3ccc(-c4ccc(F)cc4F)cc13)CCSC2 | 193 nM | 78.4 nM | 0.41 | > 5000 nM | 7 µM (≈ 2.31 µg/mL) | 10 ×10⁻⁶ cm/s | 3.6 | ≥ 100 |
| Cc1cccc2[nH]c3c(c(=O)c12)CCCC3 | 6250 nM | 4570 nM | 0.73 | > 20000 nM | 99 µM (≈ 21.1 µg/mL) | 87 ×10⁻⁶ cm/s | 2.1 | ≥ 100 |
| COc1cccc2c(=O)c3c([nH]c12)CC(C)(C)CC3 | 6540 nM | 2490 nM | 0.38 | > 20000 nM | 91 µM (≈ 23.4 µg/mL) | 114 ×10⁻⁶ cm/s | 2.4 | ≥ 100 |
| CC1(C)CCc2c([nH]c3ccc(Cl)cc3c2=O)C1 | 215 nM | 538 nM | 2.5 | > 1000 nM | 2 µM (≈ 0.524 µg/mL) | 96 ×10⁻⁶ cm/s | 2.7 | ≥ 100 |

| Structure (SMILES) | EC50 [1] | EC50 [2] | Ratio EC50 [3] | EC50 [4] | solubility [5] | Papp [6] | logD [7] | selectivity ratio [8] |
| --- | --- | --- | --- | --- | --- | --- | --- | --- |
| COc1cc(OC)c2c(=O)c3c([nH]c2c1)CCCC3 | > 7290 nM | 2590 nM | <0.36 | > 40000 nM | 188 µM (≈ 48.7 µg/mL) | 13 ×10⁻⁶ cm/s | 1.4 | ≥ 100 |
| O=c1c2c([nH]c3c(Cl)c(Cl)ccc13)CCCC2 | 6330 nM | > 9330 nM | >1.47 | > 20000 nM | 41 µM (≈ 11 µg/mL) | 348 ×10⁻⁶ cm/s | 2.9 | ≥ 100 |
| O=c1c2c([nH]c3ccc([N+](=O)[O-])cc13)CCCC2 | 3160 nM | 379 nM | 0.12 | > 5000 nM | 8 µM (≈ 1.95 µg/mL) | 6.9 ×10⁻⁶ cm/s | 1.5 | ≥ 100 |
| CC1(C)CCc2[nH]c3ccccc3c(=O)c2C1 | 421 nM | 295 nM | 0.7 | > 20000 nM | 35 µM (≈ 7.96 µg/mL) | 43 ×10⁻⁶ cm/s | 1.8 | ≥ 100 |
| Cc1ccc2[nH]c3c(c(=O)c2c1)CC(C)(C)CC3 | 474 nM | 2180 nM | 4.6 | > 40000 nM | 52 µM (≈ 12.5 µg/mL) | 84 ×10⁻⁶ cm/s | 2.4 | ≥ 100 |
| Oc1c2c(nc3ccc(Br)cc13)CCCC2 | 197 nM | 64.7 nM | 0.32 | > 2000 nM | 2 µM (≈ 0.556 µg/mL) | 63 ×10⁻⁶ cm/s | 2.1 | ≥ 100 |
| O=c1c2c([nH]c3c(F)cc(F)cc13)CCCC2 | 2690 nM | 405 nM | 0.15 | > 40000 nM | 66 µM (≈ 15.5 µg/mL) | 29 ×10⁻⁶ cm/s | 1.7 | ≥ 100 |
| O=c1c2c([nH]c3c(Cl)cccc13)CCCC2 | 1350 nM | > 9000 nM | >7.9 | > 20000 nM | 107 µM (≈ 25 µg/mL) | 107 ×10⁻⁶ cm/s | 2.2 | ≥ 100 |
| O=c1c2c([nH]c3cc(C(F)(F)F)ccc13)CCCCCC2 | 4740 nM | 4230 nM | 0.89 | > 10000 nM | 13 µM (≈ 3.84 µg/mL) | 252 ×10⁻⁶ cm/s | 3.2 | ≥ 100 |
| COc1cc2[nH]c3c(c(=O)c2cc1Cl)CCCC3 | 30.6 nM | 24.1 nM | 0.79 | > 10000 nM | 17 µM (≈ 4.48 µg/mL) | 85 ×10⁻⁶ cm/s | 2.2 | ≥ 100 |
| O=c1c2c([nH]c3cc(F)ccc13)CCCC2 | 67.7 nM | 119 nM | 1.76 | > 20000 nM | 46 µM (≈ 9.99 µg/mL) | 21 ×10⁻⁶ cm/s | 1.7 | ≥ 100 |
| O=c1c2c([nH]c3ccc(-c4ccc(OC(F)(F)F)cc4)cc13)CCSC2 | 95.1 nM | 58 nM | 0.61 | > 1000 nM | 1 µM (≈ 0.377 µg/mL) | < 1 ×10⁻⁶ cm/s | 2.5 | ≥ 100 |
| COc1ccc2[nH]c3c(c(=O)c2c1)CC(C)(C)CC3 | 8400 nM | > 9720 nM | >1.16 | > 20000 nM | 38 µM (≈ 9.78 µg/mL) | 73 ×10⁻⁶ cm/s | 2 | ≥ 100 |
| O=c1c2c([nH]c3ccc(-c4ccc(COc5ccc(OC(F)(F)F)cc5)cc4)cc13)CCSC2 | 129 nM | 2840 nM | 22 | > 10000 nM | 12 µM (≈ 5.8 µg/mL) | 3 ×10⁻⁶ cm/s | 3.5 | ≥ 100 |
| CC1(C)CCc2c([nH]c3cccc(Cl)c3c2=O)C1 | 2990 nM | 5330 nM | 1.78 | > 5000 nM | 6 µM (≈ 1.57 µg/mL) | 103 ×10⁻⁶ cm/s | 2.5 | ≥ 100 |
| COc1cc2[nH]c3c(c(=O)c2cc1OC)CCCC3 | 8970 nM | 3390 nM | 0.38 | > 20000 nM | 88 µM (≈ 22.8 µg/mL) | 1 ×10⁻⁶ cm/s | 1.3 | ≥ 100 |
| O=c1c2c([nH]c3ccc(Cl)cc13)CCCC2 | 99.4 nM | 63.4 nM | 0.63 | > 2000 nM | 4 µM (≈ 0.935 µg/mL) | 57 ×10⁻⁶ cm/s | 2 | ≥ 100 |
| O=c1c2c([nH]c3ccc(I)cc13)CCCC2 | 378 nM | 167 nM | 0.44 | > 20000 nM | 4 µM (≈ 1.3 µg/mL) | 96 ×10⁻⁶ cm/s | 2.3 | ≥ 100 |
